This note sets out measurements from US10167297B2, “Substituted pyridine compounds having herbicidal activity” (BASF SE, priority 2014, dated 2019).

Holding throughout (assay type): in vivo
Experiment [1] has as its system Zea mays. Kind of experiment: greenhouse post-emergence herbicidal activity on crop plant corn (use examples). The settings on record: ZEAMX (corn, crop plant), scale 0 to 100; for plant injury at 125 g/ha: 0.125 kg/ha. An excerpt: (§1) The seeds of the test plants were sown separately for each species. For the pre-emergence treatment, the active ingredients, which had been suspended or emulsified in water, were applied directly after sowing by means of finely distributing nozzles. The containers were irrigated gently to promote germination and growth and subsequently covered with transparent plastic hoods until the plants had rooted. This cover caused uniform germination of the test plants, unless this had been impaired by the active ingredients. For the post-emergence treatment, the test plants were first grown to a height of 3 to 15 cm, depending on the plant habit, and only then treated with the active ingredients which had been suspended or emulsified in water. For this purpose, the test plants were either sown directly and grown in the same containers, or they were first grown separately as seedlings and transplanted into the test containers a few days prior to treatment. Depending on the species, the plants were kept at 10-25° C. or 20-35° C., respectively. The test period extended over 2 to 4 weeks. During this time, the plants were tended, and their response to the individual treatments was evaluated. Evaluation was carried out using a scale from 0 to 100. 100 means no emergence of the plants, or complete destruction of at least the aerial moieties, and 0 means no damage, or normal course of growth. A good herbicidal activity is given at values of at least 70 and a very good herbicidal activity is given at values of at least 85. The plants used in the greenhouse experiments were of the following species: [table]

The next experiment relates to Avena Fatua. Briefly: comparative greenhouse post-emergence herbicidal activity. The settings on record: AVEFA, 20 days, scale 0 to 100. The protocol: (§2) The herbicidal activity of the compounds I-5 (N-[2,6-dichloro-3-(8-hydroxy-6,6-dioxo-5H-thiopyrano[4,3-b]pyridin-7-yl)phenyl]-N-methyl-acetamide) and 1-19 (Methyl N-[2,6-dichloro-3-(8-hydroxy-5,5-dimethyl-6,6-dioxo-thiopyrano[4,3-b]pyridin-7-yl)phenyl]-N-methyl-carbamate) according to this invention was tested in comparison with compound I-5 disclosed on page 147 of WO 2012/084755 A1 (not of the invention). These comparative experiments were performed in greenhouse by using the following procedure:
(§3) The culture containers used were plastic flowerpots containing loamy sand with approximately 3.0% of humus as the substrate. The seeds of the test plants were sown separately for each species.
(§4) For the post-emergence treatment, the test plants were first grown to a height of 3 to 15 cm, depending on the plant habit, and only then treated with the active ingredients which had been suspended or emulsified in water using a volume of 375 I/ha and 1% of an Adjuvant. For this purpose, the test plants were either sown directly and grown in the same containers, or they were first grown separately as seedlings and transplanted into the test containers a few days prior to treatment.
(§5) Depending on the species, the plants were kept at 10-25° C. (cold season grasses) or 20-35° C. (warm season grasses), respectively.
(§6) The test period extended over 20 days. During this time, the plants were tended, and their response to the individual treatments was evaluated.
(§7) Evaluation was carried out using a scale from 0 to 100. 100 means complete destruction of at least the aerial moieties, and 0 means no damage, or normal course of growth. A good herbicidal activity is given at values of at least 70 and a very good herbicidal activity is given at values of at least 85.
(§8) The plants used in the greenhouse experiments were of the following species:
(§9) The application rates in the post-emergence treatment were 0.1, 0.05 and 0.025 kg/ha, respectively.

For another experiment, the system named is Abuthilon avicennae. The description is as above. Particulars: ABUTH, 20 days, scale 0 to 100. As for the experimental part:
as §2, §3, §4, §5, §6, §7, §8, §9

The next experiment has as its system Digitaria sanguine. The experiment is described as above. The settings on record: DIGSA, 20 days, scale 0 to 100. As for the experimental part: as §2, §3, §4, §5, §6, §7, §8, §9
For the next experiment, the system named is Bromus steliris. The description is as above. Particulars: BROST, 20 days, scale 0 to 100. The protocol: as §2, §3, §4, §5, §6, §7, §8, §9
The subject of the next experiment is Lolium Multiflori. The experiment is described as above. Particulars: LOLMU, 20 days, scale 0 to 100. As for the experimental part: as §2, §3, §4, §5, §6, §7, §8, §9
Experiment [2] relates to Echinocloa crus-galli. The description is as above. Particulars: ECHCG, 20 days, scale 0 to 100. As for the experimental part:
as §2, §3, §4, §5, §6, §7, §8, §9

In the next experiment the test system is Ambrosia artimisifolio. The experiment is described as above. The settings on record: AMBEL, 20 days, scale 0 to 100. The protocol:
as §2, §3, §4, §5, §6, §7, §8, §9

The subject of experiment [3] is Setaria viridis. The description is as above. Particulars: SETVI, 20 days, scale 0 to 100. As for the experimental part: as §2, §3, §4, §5, §6, §7, §8, §9
Experiment [4] has as its system Polygonum convolvulus. The description is as above. The settings on record: POLCO, 20 days, scale 0 to 100. The protocol:
as §2, §3, §4, §5, §6, §7, §8, §9

The next experiment concerns Amaranthus retroflexus. Briefly: greenhouse post-emergence herbicidal activity (use examples). Particulars: AMARE, scale 0 to 100.
From the text: as §1

Experiment [5] relates to Echinocloa crus-galli. The experiment is described as above. Particulars: Echinochloa crus-galli, ECHCG, scale 0 to 100.
From the text: as §1

Another experiment relates to Chenopodium album. Described as above. The settings on record: CHEAL, 0.125 kg/ha, scale 0 to 100.
From the text: as §1

For experiment [6], the system named is Zea mays. Briefly: comparative greenhouse post-emergence herbicidal activity on crop plant corn. Particulars: ZEAMX (corn, crop plant), 20 days, scale 0 to 100. The protocol:
as §2, §3, §4, §5, §6, §7, §8, §9

Another experiment relates to Stellaria media. Briefly: greenhouse post-emergence herbicidal activity (use examples). Particulars: STEME, scale 0 to 100.
From the text: as §1

For experiment [7], the system named is Setaria viridis. The experiment is described as above. Particulars: SETVI, 0.063 kg/ha, scale 0 to 100.
From the text: as §1

For experiment [8], the system named is Polygonum convolvulus. The experiment is described as above. Particulars: POLCO, 0.063 kg/ha, scale 0 to 100.
From the text: as §1

In another experiment the test system is Setaria faberi. The experiment is described as above. The settings on record: SETFA, scale 0 to 100.
From the text: as §1

`CC(=O)N(C)c1c(Cl)ccc(C2=C(O)c3ncccc3CS2(=O)=O)c1Cl` [Compound I-5, N-[2,6-dichloro-3-(8-hydroxy-6,6-dioxo-5H-thiopyrano[4,3-b]pyridin-7-yl)phenyl]-N-methyl-acetamide]: the plant injury at 125 g/ha with Zea mays [1] amounted to 10%. Also, the Herbicidal activity came out at 55 in the experiment on Avena Fatua (0.025 kg/ha); 85 in the experiment with Avena Fatua (0.05 kg/ha); 90 in the experiment on Avena Fatua (0.1 kg/ha); 70 in the experiment on Abuthilon avicennae (0.025 kg/ha); 80 in the experiment with Abuthilon avicennae (0.05 kg/ha); 90 with Abuthilon avicennae (0.1 kg/ha). In addition, the Herbicidal activity in the experiment with Digitaria sanguine (0.025 kg/ha) is on record as 90; in the experiment on Digitaria sanguine (0.05 kg/ha) it was 95; with Digitaria sanguine (0.1 kg/ha) it was 100; in the experiment with Bromus steliris (0.025 kg/ha), 98; in the experiment with Bromus steliris (0.05 kg/ha) it was 98; in the experiment with Bromus steliris (0.1 kg/ha) it was 98. In addition, the Herbicidal activity came to 25 in the experiment on Lolium Multiflori (0.025 kg/ha); 55 in the experiment on Lolium Multiflori (0.05 kg/ha); 80 in the experiment with Lolium Multiflori (0.1 kg/ha); 90 in the experiment with Echinocloa crus-galli [2] (0.025 kg/ha); 100 in the experiment on Echinocloa crus-galli [2] (0.05 kg/ha); 100 with Echinocloa crus-galli [2] (0.1 kg/ha). Further, the Herbicidal activity in the experiment with Ambrosia artimisifolio (0.025 kg/ha) was found to be 90; in the experiment with Ambrosia artimisifolio (0.05 kg/ha) it was 100; in the experiment with Ambrosia artimisifolio (0.1 kg/ha) it was 95; in the experiment with Setaria viridis [3] (0.025 kg/ha), 90; with Setaria viridis [3] (0.05 kg/ha), 90; with Setaria viridis [3] (0.1 kg/ha), 90. The Herbicidal activity in the experiment on Polygonum convolvulus [4] (0.025 kg/ha) worked out at 35; in the experiment with Polygonum convolvulus [4] (0.05 kg/ha), 45; in the experiment on Polygonum convolvulus [4] (0.1 kg/ha), 80; with Amaranthus retroflexus (0.125 kg/ha), 98; with Chenopodium album it was 98; with Zea mays [6] (0.025 kg/ha), 15. In the experiment on Zea mays [6] (0.05 kg/ha), this compound registered a Herbicidal activity of 45. In the experiment with Echinocloa crus-galli [5] (0.125 kg/ha), this compound yielded a pest or weed control at 125 g/ha of 95%.

Take `CN(C(=O)C1CC1)c1c(Cl)ccc(C2=C(O)c3ncccc3C(C)(C)S2(=O)=O)c1Cl` [Compound I-9, N-[2,6-dichloro-3-(8-hydroxy-5,5-dimethyl-6,6-dioxo-thiopyrano[4,3-b]pyridin-7-yl)phenyl]-N-methyl-cyclopropanecarboxamide]: the plant injury at 63 g/ha in the experiment with Zea mays [1] (0.063 kg/ha) is 5%. Besides, the Herbicidal activity amounted to 100 in the experiment with Stellaria media (0.063 kg/ha), 95 in the experiment on Setaria viridis [7] and 95 in the experiment on Polygonum convolvulus [8].

Regarding `CN(C(=O)C(F)F)c1c(Cl)ccc(C2=C(O)c3ncccc3C(C)(C)S2(=O)=O)c1Cl` [Compound I-18, N-[2,6-dichloro-3-(8-hydroxy-5,5-dimethyl-6,6-dioxo-thiopyrano[4,3-b]pyridin-7-yl)phenyl]-2,2-difluoro-N-methyl-acetamide], the plant injury at 125 g/ha with Zea mays [1] worked out at 30%. Further, the Herbicidal activity in the experiment with Stellaria media (0.125 kg/ha) turned out to be 100; in the experiment with Setaria faberi (0.125 kg/ha), 98.

In the experiment on Zea mays [1] (0.050 kg/ha), `COC(=O)N(C)c1c(Cl)ccc(C2=C(O)c3ncccc3C(C)(C)S2(=O)=O)c1Cl` [Compound I-19, Methyl N-[2,6-dichloro-3-(8-hydroxy-5,5-dimethyl-6,6-dioxo-thiopyrano[4,3-b]pyridin-7-yl)phenyl]-N-methyl-carbamate] displayed a plant injury at 50 g/ha of 20%. Also, the Herbicidal activity in the experiment on Avena Fatua (0.025 kg/ha) is given as 50; in the experiment on Avena Fatua (0.05 kg/ha) it was 80; with Avena Fatua (0.1 kg/ha), 90; in the experiment with Abuthilon avicennae (0.025 kg/ha) it was 75; in the experiment on Abuthilon avicennae (0.05 kg/ha), 85; in the experiment on Abuthilon avicennae (0.1 kg/ha), 98. Besides, the Herbicidal activity in the experiment with Digitaria sanguine (0.025 kg/ha) was 95; in the experiment on Digitaria sanguine (0.05 kg/ha) it was 98; in the experiment with Digitaria sanguine (0.1 kg/ha) it was 95; in the experiment on Bromus steliris (0.025 kg/ha), 80; in the experiment on Bromus steliris (0.05 kg/ha), 85; in the experiment with Bromus steliris (0.1 kg/ha) it was 95. Also, the Herbicidal activity amounted to 25 in the experiment on Lolium Multiflori (0.025 kg/ha); 35 in the experiment with Lolium Multiflori (0.05 kg/ha); 75 with Lolium Multiflori (0.1 kg/ha); 85 in the experiment with Echinocloa crus-galli [2] (0.025 kg/ha); 90 in the experiment with Echinocloa crus-galli [2] (0.05 kg/ha); 95 in the experiment on Echinocloa crus-galli [2] (0.1 kg/ha). In addition, the Herbicidal activity in the experiment on Ambrosia artimisifolio (0.025 kg/ha) is 85; in the experiment with Ambrosia artimisifolio (0.05 kg/ha) it was 95; in the experiment with Ambrosia artimisifolio (0.1 kg/ha), 90; with Setaria viridis [3] (0.025 kg/ha), 85; in the experiment on Setaria viridis [3] (0.05 kg/ha) it was 100; with Setaria viridis [3] (0.1 kg/ha) it was 100. Also, the Herbicidal activity with Polygonum convolvulus [4] (0.025 kg/ha) worked out at 45; in the experiment on Polygonum convolvulus [4] (0.05 kg/ha), 45; in the experiment with Polygonum convolvulus [4] (0.1 kg/ha) it was 95; in the experiment on Amaranthus retroflexus (0.050 kg/ha), 98; with Setaria faberi (0.050 kg/ha) it was 98; in the experiment with Zea mays [6] (0.025 kg/ha), 15. The compound also displayed a Herbicidal activity in the experiment on Zea mays [6] (0.05 kg/ha) of 35. The pest or weed control at 50 g/ha in the experiment on Echinocloa crus-galli [5] (0.050 kg/ha) worked out at 95%.

As usually defined, the plant injury is how far the test organism was held down. Read a high plant injury as a strong effect. One may read the pest or weed control as how far the test organism was held down. Higher therefore signals a strong effect.
